# Experimental data published in article PMC10432605 (Blood Advances, 2023).
# Values joined by “and” are separate entries in the source; they are usually repeats but may differ in a detail not shown here. Equal values may be shown once. “Also recorded” adds a separate entry of the source. Read-outs that look alike come from different tables or passages of the source.
# Key:
# [1] = pharmacokinetics in patients with r/r MCL
# [2] = test system: patients with r/r MCL; test: phase 1/2 study efficacy; assay type: in vivo, human
# [3] = test system: patients with r/r MCL; test: phase 1/2 study safety; assay type: in vivo, human
# [4] = test system: patients with r/r MCL; settings: cited from earlier work
# [5] = test system: patients; settings: cited from earlier work
# [6] = 29 patients with best response CR
# [7] = IRC-assessed, n=106, follow-up 23.8 mo
# [8] = Investigator-assessed, n=106, follow-up 23.8 mo
# [9] = PET assessment, median follow-up 18.4 months
# [10] = ref 10 (ibrutinib), 14 (acalabrutinib), 15 (zanubrutinib)
smiles,measurement,setting,value
C=CC(=O)N1CCC(c2ccc(C(N)=O)c(-c3ccc(Oc4ccccc4)cc3)n2)CC1 [orelabrutinib],Tmax,"[1]; human, in vivo, 150 mg, Tmax (median, minimum-maximum), Day 1 single, 150 mg",2 h
same,Coefficients of variation of pharmacokinetic parameters,[1]; patients with r/r MCL,< 30%
same,DOR rate at 24 months,[2]; [6],~80%
same,OS at 24 months,[2]; [6],~100%
same,PFS rate at 24 months,[2]; [6],~80%
same,median reduction percentage in the SPD of target lesions,"[2]; CT/MRI, baseline median SPD 2514.4 mm^2",87.2%
same,patients with objective response,"[2]; IRC assessment, n=106",86 patients
same,median DOR,[2]; IRC-assessed,22.9 months
same,CR,[2]; [7],27.4%
same,DCR,[2]; [7],86.8 (78.8-92.6) %
same,PD,[2]; [7],8.5%
same,PR,[2]; [7],53.8%
same,ORR,"[2]; IRC-assessed, n=106, median follow-up 23.8 mo",81.1 (72.4-88.1) %
same,CR,"[2]; IRC, follow-up 10.5 mo",25.5%
same,CR,[2]; [8],34.9%
same,DCR,[2]; [8],87.7 (79.9-93.3) %
same,ORR,[2]; [8],82.1 (73.4-88.9) %
same,PD,[2]; [8],5.7%
same,PR,[2]; [8],47.2%
same,median PFS,[2]; full analysis set,22.0 months and 22 months
same,patients with objective response,"[2]; investigator assessment, n=106",87 patients
same,median TTR,[2]; n=106,1.9 months
same,"ORR (95% CI), IRC",[2]; subgroup Age ≥65,83.3%
same,"ORR (95% CI), IRC",[2]; subgroup Baseline Splenomegaly Yes,66.7%
same,"ORR (95% CI), IRC",[2]; subgroup Ki-67 ≥30%,79.4%
same,"ORR (95% CI), IRC",[2]; subgroup Prior CD20 Antibody Therapy No,91.7%
same,"ORR (95% CI), IRC",[2]; subgroup Prior lines of therapy ≥2,75.9%
same,"ORR (95% CI), IRC",[2]; subgroup Tumor Stage III/IV,80%
same,"ORR (95% CI), IRC",[2]; subgroup longest target lesion ≥10 cm (bulky disease),81.8%
same,"atrial fibrillation, grade 1","[3]; cycle 1, deemed unrelated to treatment",1 episode
same,AEs leading to discontinuation of treatment,[3]; n=106,4.7%
same,Alanine aminotransferase increase (any grade): Incidence,[3]; n=106,10.4%
same,Alanine aminotransferase increase (any grade): Number of patients,[3]; n=106,11
same,All TEAEs: Incidence,[3]; n=106,95.3%
same,All TEAEs: Number of patients,[3]; n=106,101
same,All grade ≥3 TEAEs: Incidence,[3]; n=106,51.9%
same,All grade ≥3 TEAEs: Number of patients,[3]; n=106,55
same,Anemia (any grade): Incidence,[3]; n=106,19.8%
same,Anemia (any grade): Number of patients,[3]; n=106,21
same,Anemia (grade ≥3): Incidence,[3]; n=106,7.5%
same,Anemia (grade ≥3): Number of patients,[3]; n=106,8
same,Cough (any grade): Incidence,[3]; n=106,16.0%
same,Cough (any grade): Number of patients,[3]; n=106,17
same,Diarrhea (any grade): Incidence,[3]; n=106,11.3%
same,Diarrhea (any grade): Number of patients,[3]; n=106,12
same,Disease progression (grade ≥3 AE): Incidence,[3]; n=106,4.7%
same,Disease progression (grade ≥3 AE): Number of patients,[3]; n=106,5
same,Grade 3 or higher infection events,[3]; n=106,14.2%
same,Hematuria (any grade): Incidence,[3]; n=106,10.4%
same,Hematuria (any grade): Number of patients,[3]; n=106,11
same,Hyperglycemia (any grade): Incidence,[3]; n=106,12.3%
same,Hyperglycemia (any grade): Number of patients,[3]; n=106,13
same,Hypertension (any grade): Incidence,[3]; n=106,17%
same,Hypertension (any grade): Number of patients,[3]; n=106,18
same,Hypertension (grade ≥3): Incidence,[3]; n=106,5.7%
same,Hypertension (grade ≥3): Number of patients,[3]; n=106,6
same,Hypoalbuminemia (any grade): Incidence,[3]; n=106,10.4%
same,Hypoalbuminemia (any grade): Number of patients,[3]; n=106,11
same,Hypokalemia (any grade): Incidence,[3]; n=106,17.0%
same,Hypokalemia (any grade): Number of patients,[3]; n=106,18
same,Hypokalemia (grade ≥3): Incidence,[3]; n=106,2.8%
same,Hypokalemia (grade ≥3): Number of patients,[3]; n=106,3
same,Leukocytosis (grade ≥3): Incidence,[3]; n=106,3.8%
same,Leukocytosis (grade ≥3): Number of patients,[3]; n=106,4
same,Leukopenia (any grade): Incidence,[3]; n=106,19.8%
same,Leukopenia (any grade): Number of patients,[3]; n=106,21
same,Lymphocytosis (grade ≥3): Incidence,[3]; n=106,3.8%
same,Lymphocytosis (grade ≥3): Number of patients,[3]; n=106,4
same,Neutropenia (any grade): Incidence,[3]; n=106,24.5%
same,Neutropenia (any grade): Number of patients,[3]; n=106,26
same,Neutropenia (grade ≥3): Incidence,[3]; n=106,8.5%
same,Neutropenia (grade ≥3): Number of patients,[3]; n=106,9
same,Pneumonia (any grade): Incidence,[3]; n=106,11.3%
same,Pneumonia (any grade): Number of patients,[3]; n=106,12
same,Pneumonia (grade ≥3): Incidence,[3]; n=106,5.7%
same,Pneumonia (grade ≥3): Number of patients,[3]; n=106,6
same,Pneumonitis (any grade): Incidence,[3]; n=106,17.9%
same,Pneumonitis (any grade): Number of patients,[3]; n=106,19
same,Pneumonitis (grade ≥3): Incidence,[3]; n=106,3.8%
same,Pneumonitis (grade ≥3): Number of patients,[3]; n=106,4
same,Prolonged QT interval (any grade): Incidence,[3]; n=106,11.3%
same,Prolonged QT interval (any grade): Number of patients,[3]; n=106,12
same,Pyrexia (any grade): Incidence,[3]; n=106,12.3%
same,Pyrexia (any grade): Number of patients,[3]; n=106,13
same,Rash (any grade): Incidence,[3]; n=106,17.0%
same,Rash (any grade): Number of patients,[3]; n=106,18
same,SAE Pneumonia: Incidence,[3]; n=106,5.7%
same,SAE Pneumonitis: Incidence,[3]; n=106,4.7%
same,SAE Progressive disease: Incidence,[3]; n=106,4.7%
same,Soft tissue infection (grade ≥3): Incidence,[3]; n=106,2.8%
same,Soft tissue infection (grade ≥3): Number of patients,[3]; n=106,3
same,Thrombocytopenia (any grade): Incidence,[3]; n=106,34.0%
same,Thrombocytopenia (any grade): Number of patients,[3]; n=106,36
same,Thrombocytopenia (grade ≥3): Incidence,[3]; n=106,13.2%
same,Thrombocytopenia (grade ≥3): Number of patients,[3]; n=106,14
same,Upper respiratory tract infection (any grade): Incidence,[3]; n=106,27.4%
same,Upper respiratory tract infection (any grade): Number of patients,[3]; n=106,29
same,Weight increase (any grade): Incidence,[3]; n=106,11.3%
same,Weight increase (any grade): Number of patients,[3]; n=106,12
same,bleeding events (any),[3]; n=106,34.9%
same,bleeding events grade 1,[3]; n=106,31.1%
same,bleeding events grade 2,[3]; n=106,3.8%
same,death from infection due to acute myeloid leukemia,[3]; n=106,1%
same,death from lung infection due to the common cold,[3]; n=106,1%
same,deaths due to drug-related AEs (fatal TRAEs),[3]; n=106,no fatal TRAEs were reported; also recorded: No deaths due to drug-related AEs were reported
same,deaths from AEs deemed unrelated to treatment,[3]; n=106,2%
same,deaths from disease progression,[3]; n=106,15%
same,diarrhea judged as related to treatment,[3]; n=106,3.8%
same,discontinued treatment because of drug-related AEs,[3]; n=106,2.8%
same,drug-related grade 3 or higher infection events,[3]; n=106,6.6%
same,drug-related infection events,[3]; n=106,34%
same,drug-related pneumonia,[3]; n=106,7.5%
same,drug-related upper respiratory tract infection,[3]; n=106,13.2%
same,"grade 3 or higher second primary malignancy, atrial fibrillation/flutter, diarrhea, or bleeding events",[3]; n=106,"No grade 3 or higher second primary malignancy, atrial fibrillation/flutter, diarrhea, or bleeding events were observed"
same,"major hemorrhage (grade 3 or higher, serious, or any grade CNS bleeding)",[3]; n=106,No patient experienced major hemorrhage
same,microscopic hematuria,[3]; n=106,6.6%
same,patients who died during the study,[3]; n=106,27 patients
same,patients with treatment-related grade 3 or higher AEs,[3]; n=106,34.9%
same,petechiae,[3]; n=106,4.7%
same,proportion of AEs that were grade 1 or 2,[3]; n=106,89%
same,purpura,[3]; n=106,4.7%
same,rate of second malignancy,[3]; n=106,2.8%
same,second primary malignancy,[3]; n=106,3 patients
same,treatment-related AEs leading to dose interruption,[3]; n=106,17%
same,treatment-related anemia,[3]; n=106,14.2%
same,treatment-related decreases in neutrophils,[3]; n=106,22.6%
same,treatment-related decreases in platelets,[3]; n=106,32.1%
same,treatment-related decreases in white blood cells,[3]; n=106,18.9%
same,treatment-related hypertension,[3]; n=106,15.1%
C=CC(=O)N1CCC([C@@H]2CCNc3c(C(N)=O)c(-c4ccc(Oc5ccccc5)cc4)nn32)CC1 [zanubrutinib],CR,[4]; [9],68.6%
same,ORR,[4]; [9],84%
same,median TTR,[4],2.8 months
same,median DOR,[4]; zanubrutinib trial,19.5 months
same,median PFS,[4]; zanubrutinib trial,22.1 months
same,major hemorrhage,[5],5.4%
same,rate of treatment discontinuation,[5],12.5%
same,incidence of diarrhea,[5]; [10],23%
same,incidence of second malignancy,[5]; [10],14%
